Data from patent US20240115729A1, “COMPOSITIONS AND METHODS FOR TARGETED ANTIFIBROTIC THERAPY IN CHRONIC PANCREATITIS” (University of Virginia Patent Foundation, priority 2021, published 2024).
Several values for one entry are separate records, joined by “and”; a condition that tells them apart may be missing. Equal entries are not always repeated.

Experiments:
[1] = test system: caerulein-induced CP mice (inflamed pancreas) versus healthy mice; test: In vivo validation of individual phage clones: ex vivo IVIS fluorescence of organs after co-injection of targeting phage (VT680) and wild type M13Ke phage (VT750); parameters: species or system mouse (C57BL/6J); settings: for CP-to-Healthy Ratio (fold change of specificity ratio): Pancreas; for specificity for CP over healthy pancreas: individual clones from Groups 2 and 3
Procedure: C57BL/6 J mice (6-12 week-old, female) were used for the in vivo phage screening. For chronic pancreatitis, caerulein (Bachem, Torrance, California, United States of America) was dissolved in sterile saline and administrated to mice twice a day, 8 hours apart for 14 consecutive days, at a concentration of 250 μg/kg body weight via intraperitoneal injection (Halbrook et al., 2017), as shown in FIG. 1A. During the 14-day course, intraperitoneal injections of 100 μg/kg buprenorphine were given every 3 days to minimize the induced pain. For healthy controls, c57BL/6 J mice were injected intraperitoneally with an equal volume of sterile saline following the same schedule as in the chronic pancreatitis models. […] Picrosirius red (Polysciences, Inc., Warrington, Pennsylvania, United States of America) was used to visualize collagen in paraffin-embedded pancreas sections (FIG. 1B).
Specificity of phage clones. After PHASTpep analysis and candidate clone selections, 18 candidate clones were grouped (4-5 clones per group, 4 groups total) based on sequence similarity using GibbsCluster Server 2.0 (Andreatta et al., 2017). by the Technical University of Denmark (FIG. 2). […] For each group, the fluorescently labeled candidate and WT phage were mixed and co-injected in CP and healthy mice (n=5) Phage accumulation was determined by measuring the ex vivo fluorescent intensity of the pancreas at 20 hours post-injection using the Fluorescent Molecular Tomography (FMT, PerkinElmer, Waltham, Massachusetts, United States of America) using the excitation and emission wavelength at 675 nm/720 nm for VT680 and 745 nm/800 nm for VT750. To account for variations of fluorescent labeling efficiency, the raw readouts of VT680 and VT750 were normalized to the dye-per-phage ratio (see Table 3 below).
The specificity ratio was calculated as % ID/g of the normalized VT680 divided by the % ID/g of the normalized VT750 (see Equation (1)). Quantifications are included in Table 4.
A similar procedure was applied to determine the specificity of individual phage clones in Groups 2 and 3. Candidate clones were labeled with VivioTag 680 (VT680, PerkinElmer, Waltham, MA) to match the detectable wavelength of the IVIS Spectrum Series (Perkin Elmer, Waltham, Massachusetts, United States of America). Fluorescent intensity was measured at 20 hours post-injection of candidate phage (VT680) and WT phage (VT750). Fold change of specificity ratio was calculated as the specificity ratio of CP mice divided by the specificity ratio of the healthy mouse (see Table 5).

CD31 (endothelium) = test: Immunofluorescence colocalization (MCC) of VT680-labeled phage with cell marker in CP pancreas; format: in vivo, mouse; settings: CP pancreas sections
From the text: (§1) Immunofluorescence (IF). Post ex vivo imaging, mouse pancreata were submerged in Neg-50 Frozen Section Medium (Thermo Scientific, Waltham, Massachusetts, United States of America) and snap-frozen over liquid nitrogen vapor. The embedded tissues were cut into 5 μm sections using a cryostat (Leica Microsystems Inc., Buffalo Grove, Illinois, United States of America) for subsequent imaging with ZEISS LSM-880 Confocal Laser Scanning Microscope (Carl Zeiss Meditec, Inc., Jena, Germany) at the Advanced Microscopy Facility at the University of Virginia. Cell types of interest in the pancreatitis microenvironment were identified by immunohistochemistry using the following antibodies: rat anti-mouse CD31 at 1:200 dilution (endothelial markers; BD Biosciences, San Jose, California, United States of America), rat anti-mouse CD206 at 1:1000 dilution (M2 macrophage markers; Bio-Rad, Hercules, California, United States of America), rabbit anti-mouse cytokeratin 7 at 1:3000 dilution (CK-7, epithelial markers; Abcam, Cambridge, Massachusetts, United States of America), rabbit anti-mouse collagen IIIa at 1:200 dilution (ECM markers; Abcam, Cambridge, Massachusetts, United States of America), goat anti-mouse carboxypeptidase A1 at 1:200 dilution (CPA1, acini markers; R&D Systems, Inc., Minneapolis, Minnesota, United States of America), rat anti-mouse F4/80 at 1:500 (macrophage markers; Bio-Rad, Hercules, California, United States of America), and FITC-conjugated, mouse anti-mouse α-SMA at 1:200 dilution (MilliporeSigma, St. Louis, Missouri, United States of America). ALEXA FLUOR® 488 (Abcam, Cambridge, Massachusetts, United States of America) antibodies from appropriate species, including donkey anti-goat, donkey anti-rat, donkey anti-rabbit at 1:500 dilution, were used as secondary antibodies to locate the primary antibodies. IF-stained pancreatic sections were mounted with PROLONG™ Gold Antifade Mountant with DAPI (Thermo Fisher Scientific Inc, Waltham, Massachusetts, United States of America, United States of America) for nucleus visualization. IF images were taken on Ziess LSM 880 Confocal Microscope (ZIESS, Oberkochen, Germany) at the Advanced Microscopy Facility at the University of Virginia.
(§2) To identify the cell types that the CP targeting clones were binding, immunofluorescent analysis was performed on common cellular components in the CP microenvironment in the inflamed pancreas sections following in vivo validation of individual clones (FIG. 7). Mander's correlation coefficient (MCC) analysis was performed to determine colocalization of the targeting phage to the cell markers.

CK7 (epithelium) = test: as above; format: in vivo, mouse; settings: CP pancreas sections
From the text: as §1, §2

[2] = test system: CPA-1+ cells (acinar cells); test: as above; format: in vivo, mouse; settings: CP pancreas sections
From the text: as §1, §2

[3] = test system: F4/80+ cells (macrophages); test: as above; format: in vivo, mouse; settings: CP pancreas sections
From the text: as §1, §2

[4] = test system: collagen IIIa+ cells (ECM); test: as above; format: in vivo, mouse; settings: Col IIIa; CP pancreas sections
From the text: as §1, §2

[5] = test system: αSMA+ cells (activated PSC); test: as above; format: in vivo, mouse; settings: CP pancreas sections
From the text: as §1, §2

[6] = test system: cellular components in the CP microenvironment; test: Cellular selectivity of phage clones: one-way ANOVA and Tukey-Kramer comparison of MCC of all cell markers; format: in vivo, mouse; settings: for Cell type the phage clone shows specificity to / Marker the phage clone shows specificity to: CP microenvironment; for Colocalized Markers (p < 0.05) / Corresponding Cellular Components: statistically significant selectivity for a single cellular component in CP
From the text: as §1
Statistical analysis. Statistical analysis of the data was performed by student t-test, one-way analysis of variance (ANOVA), and Tukey-Kramer test. All data presented are expressed as mean+standard error of at least three independent measurements. For all comparisons, p-values<0.05 were considered significant.
as §2

## HPYSPLR [7-mer peptide, candidate phage clone from Groups 2 and 3]
[1]; CP mouse, liver
  Radiant efficiency Targeting:M13Ke: 0.59
[1]; CP mouse, pancreas
  Radiant efficiency Targeting:M13Ke: 6.42
[1]; CP mouse, spleen
  Radiant efficiency Targeting:M13Ke: 3.10
[1]; Liver
  CP-to-Healthy Ratio: 0.744
[1]
  CP-to-Healthy Ratio (fold change of specificity ratio): 1.544
  specificity for CP over healthy pancreas: increased specificity for CP over healthy pancreas
[1]; Spleen
  CP-to-Healthy Ratio: 1.138
[1]; healthy mouse, liver
  Radiant efficiency Targeting:M13Ke: 0.80
[1]; healthy mouse, pancreas
  Radiant efficiency Targeting:M13Ke: 4.16
[1]; healthy mouse, spleen
  Radiant efficiency Targeting:M13Ke: 2.73
CD31 (endothelium)
  Mean Manders' Correlation Coefficient (MCC), fraction of phage overlapping cell marker: 0.35
CK7 (epithelium)
  Mean Manders' Correlation Coefficient (MCC), fraction of phage overlapping cell marker: 0.08
[2]
  Mean Manders' Correlation Coefficient (MCC), fraction of phage overlapping cell marker: 0.25
[3]
  Mean Manders' Correlation Coefficient (MCC), fraction of phage overlapping cell marker: 0.41
[4]
  Mean Manders' Correlation Coefficient (MCC), fraction of phage overlapping cell marker: 0.27
[5]
  Mean Manders' Correlation Coefficient (MCC), fraction of phage overlapping cell marker: 0.13

## HSGLNKQ (displayed on phage) [7-mer peptide, candidate phage clone selected by motif clustering analysis]
[1]; CP mouse, liver
  Radiant efficiency Targeting:M13Ke: 0.63
[1]; CP mouse, pancreas
  Radiant efficiency Targeting:M13Ke: 6.07
[1]; CP mouse, spleen
  Radiant efficiency Targeting:M13Ke: 3.42
[1]; Liver
  CP-to-Healthy Ratio: 1.254
[1]
  CP-to-Healthy Ratio (fold change of specificity ratio): 0.611
[1]; Spleen
  CP-to-Healthy Ratio: 1.157
[1]; healthy mouse, liver
  Radiant efficiency Targeting:M13Ke: 0.50
[1]; healthy mouse, pancreas
  Radiant efficiency Targeting:M13Ke: 9.93
[1]; healthy mouse, spleen
  Radiant efficiency Targeting:M13Ke: 2.96

## KTYVPTT (displayed on phage)
[1]; CP mouse, liver
  Radiant efficiency Targeting:M13Ke: 0.61
[1]; CP mouse, pancreas
  Radiant efficiency Targeting:M13Ke: 11.90
[1]; CP mouse, spleen
  Radiant efficiency Targeting:M13Ke: 3.05
[1]; Liver
  CP-to-Healthy Ratio: 1.161
[1]
  CP-to-Healthy Ratio (fold change of specificity ratio): 1.362
  specificity for CP over healthy pancreas: increased specificity for CP over healthy pancreas
[1]; Spleen
  CP-to-Healthy Ratio: 0.890
[1]; healthy mouse, liver
  Radiant efficiency Targeting:M13Ke: 0.53
[1]; healthy mouse, pancreas
  Radiant efficiency Targeting:M13Ke: 8.74
[1]; healthy mouse, spleen
  Radiant efficiency Targeting:M13Ke: 3.43
CD31 (endothelium)
  Mean Manders' Correlation Coefficient (MCC), fraction of phage overlapping cell marker: 0.20
CK7 (epithelium)
  Mean Manders' Correlation Coefficient (MCC), fraction of phage overlapping cell marker: 0.06
[2]
  Mean Manders' Correlation Coefficient (MCC), fraction of phage overlapping cell marker: 0.26
[3]
  Mean Manders' Correlation Coefficient (MCC), fraction of phage overlapping cell marker: 0.31
[4]
  Mean Manders' Correlation Coefficient (MCC), fraction of phage overlapping cell marker: 0.23
[5]
  Mean Manders' Correlation Coefficient (MCC), fraction of phage overlapping cell marker: 0.521±0.067 and 0.52
[6]
  Cell type the phage clone shows specificity to: aPSC
  Marker the phage clone shows specificity to: α-SMA^+
  Colocalized Markers (p < 0.05): α-SMA
  Corresponding Cellular Components: aPSC

## MDLSLKP (displayed on phage)
[1]; CP mouse, liver
  Radiant efficiency Targeting:M13Ke: 0.72
[1]; CP mouse, pancreas
  Radiant efficiency Targeting:M13Ke: 10.85
[1]; CP mouse, spleen
  Radiant efficiency Targeting:M13Ke: 2.70
[1]; Liver
  CP-to-Healthy Ratio: 1.370
[1]
  CP-to-Healthy Ratio (fold change of specificity ratio): 1.875
  specificity for CP over healthy pancreas: increased specificity for CP over healthy pancreas
[1]; Spleen
  CP-to-Healthy Ratio: 1.156
[1]; healthy mouse, liver
  Radiant efficiency Targeting:M13Ke: 0.52
[1]; healthy mouse, pancreas
  Radiant efficiency Targeting:M13Ke: 5.79
[1]; healthy mouse, spleen
  Radiant efficiency Targeting:M13Ke: 2.34
CD31 (endothelium)
  Mean Manders' Correlation Coefficient (MCC), fraction of phage overlapping cell marker: 0.20
CK7 (epithelium)
  Mean Manders' Correlation Coefficient (MCC), fraction of phage overlapping cell marker: 0.06
[2]
  Mean Manders' Correlation Coefficient (MCC), fraction of phage overlapping cell marker: 0.31
[3]
  Mean Manders' Correlation Coefficient (MCC), fraction of phage overlapping cell marker: 0.46
[4]
  Mean Manders' Correlation Coefficient (MCC), fraction of phage overlapping cell marker: 0.828±0.089 and 0.83
[5]
  Mean Manders' Correlation Coefficient (MCC), fraction of phage overlapping cell marker: 0.16
[6]
  Cell type the phage clone shows specificity to: ECM
  Marker the phage clone shows specificity to: Collagen
  Colocalized Markers (p < 0.05): Collagen
  Corresponding Cellular Components: ECM

## SANITNL (displayed on phage) [7-mer peptide, candidate phage clone selected by replicability between libraries]
[1]; CP mouse, liver
  Radiant efficiency Targeting:M13Ke: 0.74
[1]; CP mouse, pancreas
  Radiant efficiency Targeting:M13Ke: 4.02
[1]; CP mouse, spleen
  Radiant efficiency Targeting:M13Ke: 4.60
[1]; Liver
  CP-to-Healthy Ratio: 1.287
[1]
  CP-to-Healthy Ratio (fold change of specificity ratio): 0.943
[1]; Spleen
  CP-to-Healthy Ratio: 1.518
[1]; healthy mouse, liver
  Radiant efficiency Targeting:M13Ke: 0.58
[1]; healthy mouse, pancreas
  Radiant efficiency Targeting:M13Ke: 4.27
[1]; healthy mouse, spleen
  Radiant efficiency Targeting:M13Ke: 3.03

## SLPLGPM (displayed on phage) [7-mer peptide, candidate phage clone from Groups 2 and 3]
[1]; CP mouse, liver
  Radiant efficiency Targeting:M13Ke: 0.64
[1]; CP mouse, pancreas
  Radiant efficiency Targeting:M13Ke: 6.42
[1]; CP mouse, spleen
  Radiant efficiency Targeting:M13Ke: 3.49
[1]; Liver
  CP-to-Healthy Ratio: 0.921
[1]
  CP-to-Healthy Ratio (fold change of specificity ratio): 1.286
  specificity for CP over healthy pancreas: increased specificity for CP over healthy pancreas
[1]; Spleen
  CP-to-Healthy Ratio: 1.215
[1]; healthy mouse, liver
  Radiant efficiency Targeting:M13Ke: 0.69
[1]; healthy mouse, pancreas
  Radiant efficiency Targeting:M13Ke: 5.00
[1]; healthy mouse, spleen
  Radiant efficiency Targeting:M13Ke: 2.87
CD31 (endothelium)
  Mean Manders' Correlation Coefficient (MCC), fraction of phage overlapping cell marker: 0.25
CK7 (epithelium)
  Mean Manders' Correlation Coefficient (MCC), fraction of phage overlapping cell marker: 0.06
[2]
  Mean Manders' Correlation Coefficient (MCC), fraction of phage overlapping cell marker: 0.35
[3]
  Mean Manders' Correlation Coefficient (MCC), fraction of phage overlapping cell marker: 0.49
[4]
  Mean Manders' Correlation Coefficient (MCC), fraction of phage overlapping cell marker: 0.23
[5]
  Mean Manders' Correlation Coefficient (MCC), fraction of phage overlapping cell marker: 0.15
